# Laboratory results as given in patent US20080261986A1, “PHARMACEUTICAL FORMULATIONS FOR IONTOPHORETIC DELIVERY OF AN ANTI-FUNGAL DRUG” (priority 2007, published 2008).
# Where a name gives a salt, the structure may show the parent alone.
# What was measured:
# [1] = Permeation through and loading in human nail, Franz diffusion cell; format: in vitro ADME
# Procedure: Permeation experiments were conducted using human nails to further validate iontophoretic delivery. In these experiments intact full thickness whole cadaver finger nail plates (˜0.5-0.7 mm thickness) were trimmed to appropriate disks and used. Prehydrated (in saline for 60 min) nail disks were sandwiched between the donor and receptor compartments of Franz diffusion cell (FDC) using a nail adaptor to conform to the curvature of the nail. Terbinafine hydrochloride (10 mg/mL) in water and Tween80 was used in the donor compartment, and acidified water used in the receptor. Current density of 0.5 mA/cm^2 was applied for 1 hr after which the receptor levels were measured for permeation of terbinafine hydrochloride through the nail using similar methods as described in Example 3B. Additionally, nail disks were analyzed (after 1 hr of iontophoresis or passive delivery) for drug in the nail using similar extraction methods as described as follows. […]
# Permeation experiments were conducted using human nails as described in Example 4 but the effect of current duration was investigated. Current density of 0.5 mA/cm^2 was applied for either 15, 30, 45, or 60 minutes and the receptor levels analyzed for amount of terbinafine hydrochloride that permeated through the nail (μg/cm^2) immediately afterwards and compared to passively delivered nails.
# T. rubrum [2] = assay: Antifungal activity of terbinafine loaded nails, agar diffusion assay; format: cell-based
# Procedure: The nail plates loaded with the formulation containing 4% terbinafine HCl, 21% ethanol (95%), 5% Tween-80, 40% glycerin, 0.3% HEC, 0.2% benzoic acid, 0.01% BHT, and 0.01% disodium EDTA (Formulation TPI-DF-507), by passive diffusion (15 or 60 min) or iontophoresis (Coulombic doses of 0.75, 3, 6, and 12 mA min corresponding to 0.25 mA/cm^2 for 15 min, 0.25 mA/cm^2 for 60 min, 0.5 mA/cm^2 for 60 min, and 1 mA/cm^2 for 60 min, respectively), were tested for antifungal activity. The inoculum, T. rubrum, (ATCC10218) was prepared in sterile saline from 7-10 days old cultures on PDA slants at 30° C. Terbinafine HCl loaded nail pieces (2˜3 mm squares) were placed on the Sabouraud Dextrose Agar plates (Oxoid, Napean, Ontario, Canada) inoculated with T. rubrum. The diameter (mm) of the zones of inhibition were measured using a dial caliper after 4 days of incubation at 30° C. and were compared with the standards. The zone of inhibition for the standards (known drug concentrations: 0.1, 0.2, 0.4, 0.5, 0.6, 0.8, 1.0. 2.0 and 3.0 μg of terbinafine HCl) were determined similarly by loading the drug on 6 mm paper blank disks (Becton Dickinson, Sparks, Md.). Subsequently, the terbinafine HCl standard curve generated was used to calculate the drug dosage out of the nail. […] Based on the passaging study, duration of release of active terbinafine HCl was determined.
# [3] = format: in vitro ADME; settings: 4 %, pH 3
# Procedure: Nails soaked in normal saline for one hour were mounted on a nail adapter and sandwiched between the two chambers of the FDC. […] Anodal iontophoresis was carried out at 0.5 mA/cm^2 for 1 hr using a custom made constant DC power supply. For comparison, passive delivery of the same formulation was performed for 1 hr. For drug release studies, nails loaded with drug were washed to remove the surface drug and were mounted on FDCs. The receiver compartment was filled with pH 3 water. The donor chamber was empty but was covered with parafilm. The receiver compartment medium was sampled daily and the amount of drug released from the drug loaded nails was measured until the cumulative release attained a plateau. Drug delivered into the nail via iontophoresis released terbinafine HCl in a sustained release fashion over approximately 3 weeks at levels far greater than passively loaded nails which reached a plateau only after a few days (FIG. 11). The amount of drug released from iontophoretically loaded nails represented approximately 47% of the initial drug loaded. Undelivered drug was confined to the upper layers of the nail and was hypothesized to be either entrapped or keratin bound. […] Actual release may be slower in vivo since the nail is not in contact with a fluid reservoir with enhanced drug solubility and infinite sink conditions.
# [4] = Delivery from nail-only and nail and skin applicators, nail on agarose model; format: in vitro ADME; settings: for nail loading range: Coulombic dose range 2-60 mA*min
# From the text: In the nail and skin applicator, the drug was delivered to both the nail and the skin (not shown). In the nail and skin applicator, the polyurethane foam and the active electrode (Ag-C) extended past the toe nail and onto agarose to mimic skin delivery. The agarose was covered with fluorinated ethylene propylene (FEP) membrane with uniform 0.5 mm holes distributed 5 mm apart to mimic the semi-restrictive property of the skin. […] The applicator extensions were adhered down to the base of the glass plate where the agarose was placed. The saline presoaked (1 hr) toe nail was placed on the curved agarose gel (1% w/v) with a counter electrode on the bottom of the agarose (standard EKG AgCl electrode with hydrogel, […]). […] Passive delivery was also run for 1 hr without current. […] The amount of drug permeated through the nail and into the agarose was determined by extracting terbinafine using 0.1M HCl and analyzing the samples by HPLC. Additional terbinafine HCl delivery testing using both types of applicators at different Coulombic doses were performed on the nail on agarose model. […] These additional doses, along with the higher 60 mA*min dose, were plotted as terbinafine loading (mg/g) with respect to Coulombic dose (FIG. 9F).
# T. rubrum [5] = settings: quoted in the T. rubrum agar study, organism not given; cited from earlier work
smiles,measurement,setting,value
"CN(C/C=C/C#CC(C)(C)C)Cc1cccc2ccccc12 [terbinafine HCl, (E)-N-(6,6-dimethyl-2-hepten-4-ynyl)-N-methyl-1-naphthylmethamine hydrochloride]","permeation through the nail and loading in the nail, iontophoresis versus passive","[1]; 10 mg/mL in water and Tween80, 0.5 mA/cm^2 for 1 hr",increases permeation through the nail and loading in the nail compared to passive delivery
same,iontophoretic permeation through the nail versus passive,"[1]; 0.5 mA/cm^2 for 15, 30, 45, or 60 minutes",greater than passively delivered drug for all current durations tested
same,"zones of inhibition, iontophoresis loaded nails versus passive delivery controls","T. rubrum [2]; Formulation TPI-DF-507, 4 days at 30° C.",Significantly larger zones of inhibition
same,Duration of terbinafine HCl release from nail samples,"T. rubrum [2]; serial passaging to freshly inoculated plates, 0.5 mA/cm^2 for 60 min",at least 36 days
same,amount of drug released as share of the initial drug loaded,[3],approximately 47%
same,duration of sustained release from iontophoretically loaded nails,[3],approximately 3 weeks
same,share of the permeated drug that passed through the nail,"[4]; 1 h, 4 %",8%
same,share of the total permeated drug which passed through areas surrounding the nail,"[4]; 1 h, 4 %",Approximately 92%
same,nail loading range,[4]; nail and skin applicator,20 to 90 µg/g
same,nail loading range,[4]; nail only applicator,124 to 588 µg/g
same,MIC,T. rubrum [5],4 ng/mL
